Here are results for seven compounds from US9975848B2, “Inhibitors of HIV-1 entry and methods of use thereof” (priority 2014, dated 2018).

In data set [1] the target is gp120 (Human immunodeficiency virus type 1 group M subtype B, UniProt P35961). The conditions noted are these: background statement; cited from earlier work.
The nature of data set [2]: Evaluation of blood-brain barrier: brain and plasma concentrations. Format: in vivo. The conditions noted are these: 1 hr post IP at 5 mg/kg, female CD1 mice. Here is the method:
Compound BNM-III-170 was administered to mice under a protocol approved by the University of Pennsylvania Institutional Animal Care and Use Committee. Specifically, BNM-III-170, dissolved in DMSO, was administered IP at 5 mg/kg to 3 month old female CD1 mice. Mice were euthanized 1 hour post dose. Brain and plasma were then collected.
Hemi-brains were homogenized with 10 mM ammonium acetate pH 4.0 (50% w/v) using a sonic dismembrator. Brain homogenate and plasma were extracted with 4 parts (v/v) acetonitrile, vortexed, and centrifuged at 15,000 g for 10 minutes. Supernatants were analyzed by LC-MS/MS using a Waters Acuity UPLC-TQMS. Samples (5 μL) were separated using a BEH C18 column (1.7 μm, 2.1×50 mm) at 0.6 mL/min from 5 to 95% acetonitrile with 0.1% formic acid over 2 minutes. BNM-III-170 was detected in positive ion mode using selected reaction monitoring of a specific collision induced ion transition (447.3>184.1 m/z). Unknown peak areas were quantified against standard curves constructed with BNM-III-170 spiked mouse brain homogenate or plasma extracted as above to final concentrations from 1 to 1000 ng/mL.

Data set [3] concerns YU-2. The experiment in a line: Infection by single-round luciferase viruses, HIV-1 YU-2 envelope. Particulars: Human immunodeficiency virus 1, 48 h, read-out: YU-2 (μM). The class given is cell-based. Here is the method: (§1) Compounds: Compounds are dissolved in dimethyl sulfoxide at a stock concentration of 10 mM, aliquoted, and stored at −20° C. Each compound is then diluted to 1 mM in serum-free Dulbecco's modified Eagle medium (DMEM) and used for different assays.
(§2) Cell Lines: 293T human embryonic kidney and Cf2Th canine thymocytes (ATCC) are grown at 37° C. and 5% CO2 in Dulbecco's modified Eagle's medium (Invitrogen) containing 10% fetal bovine serum (Sigma) and 100 μg/mL penicillin-streptomycin (Mediatech, Inc.). Cf2Th cells stably expressing human CCR5 and CD4 are grown in medium supplemented with 0.4 mg/mL G418 and 0.2 mg/mL hygromycin (Invitrogen).
(§3) Recombinant Luciferase Viruses: 293T human embryonic kidney cells were co-transfected with plasmids expressing the pCMVΔP1Δenv HIV-1 Gag-Pol packaging construct, the R5 YU2 envelope glycoproteins, or the envelope glycoprotein of the control amphotropic murine leukemia virus (A-MLV), and the firefly luciferase-expressing vector at a DNA ratio of 1:1:3 μg using the Effectene transfection reagent (Qiagen). Co-transfection produced single-round, replication-defective viruses. The virus-containing supernatants were harvested 36-40 h after transfection, spun, aliquoted, and frozen at −80° C. until further use. The reverse transcriptase (RT) activities of all viruses were measured as described in Rho, H. M., et al. Virology 1981, 112, 355-360.
(§4) Infection by Single-Round Luciferase Viruses. Cf2Th-CCR5-CD4 target cells were seeded at a density of 6×10^3 cells/well in 96-well luminometer-compatible tissue culture plates (PerkinElmer) 24 h before infection. On the day of infection, CD4-mimetic compounds of interest (0-100 μM) were incubated with recombinant viruses (10,000 RT units) at 37° C. for 30 min. In the case of sensitization assays, a constant concentration of compounds was incubated with virus for 30 min at 37° C.; then, 17b or other antibodies (0-100 μg/mL) were added to the virus/compound mixture and incubated for an additional 30 min at 37° C. The mixtures were then added to the target cells and incubated for 48 h at 37° C.; after this time, the medium was removed from each well, and the cells were lysed by the addition of 30 μL passive lysis buffer (Promega) and three freeze-thaw cycles. An EG&G Berthold Microplate Luminometer LB 96V was used to measure the luciferase activity of each well after the addition of 100 μL of luciferin buffer (15 mM MgSO4, 15 mM KPO4, pH 7.8, 1 mM ATP, and 1 mM dithiothreitol) and 50 μL of 1 mM Firefly D-Luciferin Free Acid 99% (Prolume).

Data set [4] has as its target T1, monomeric YU-2 gp120 (Human immunodeficiency virus type 1 group M subtype B, UniProt P35961).
T1 construct: containing monomeric YU-2 gp120 at a concentration of 2 μM
The experiment in a line: biochemical. Format: binding, HIV-1. Particulars: ITC, 25° C., PBS pH 7.4, 2% DMSO. Here is the method:
Isothermal Titration Calorimetry. Thermodynamic parameters for the binding of the different inhibitors to gp120 were obtained by isothermal titration calorimetry (ITC) using a VP-ITC microcalorimeter from MicroCal/GE Healthcare (Northampton, Mass., USA). The titrations were performed at 25° C. by injecting 10 μL aliquots of inhibitor solution into the calorimetric cell (volume ˜1.4 mL) containing monomeric YU-2 gp120 at a concentration of 2 μM. […] In all titration experiments, gp120 and the different inhibitors were equilibrated with PBS, pH 7.4, with 2% DMSO. The heat evolved upon each injection of inhibitor was obtained by integration of the calorimetric signal. The heat associated with inhibitor binding to gp120 was obtained by subtracting the heat of dilution from the heat of reaction.

Data set [5] has as its system A-MLV. In words: Infection by single-round luciferase viruses, control A-MLV envelope. Format: cell-based, amphotropic murine leukemia virus. Particulars: Murine leukemia virus, 48 h, read-out: A-MLV (μM). Here is the method:
as §1, §2, §3, §4

Data set [6] deals with AD8. The experiment in a line: Infection by single-round luciferase viruses, HIV-1 AD8 envelope. Format: cell-based. Particulars: Human immunodeficiency virus 1, 48 h, read-out: AD8 (μM).
In data set [7] the test system is JR-FL. In words: Infection by single-round luciferase viruses, HIV-1 JR-FL envelope. Format: cell-based. Particulars: Human immunodeficiency virus 1, 48 h, read-out: JR-FL (μM).
Data set [8] in a line: Assessment of the maximum tolerated dose (MTD). Particulars: mouse, in vivo, ip; intraperitoneal, CD-1 mice. Here is the method: Procedure: (+)-BNM-III-170 was dissolved in DMSO to a final concentration of 10 mg/mL. This solution was then used for intraperitoneal administration to CD-1 mice at various doses to examine for visible signs of intolerance after compound dosing. This included an assessment of hyper- or hypoactivity, altered locomotion, ataxia, sedation, or other visible abnormalities. The compound was ultimately tested at three doses (30 mg/kg, 10 mg/kg and 3 mg/kg), as outlined below, with the amounts injected per mouse and the behavioral observations indicated for each dosing group.

Where “and” joins values, the source holds several entries; their conditions need not be identical. Equal values may be shown once. Read-outs that look alike come from different tables or passages of the source. Bounds are passed on as bounds.

For `CC1(C)CC(NC(=O)C(=O)Nc2ccc(Cl)cc2)CC(C)(C)N1` [NBD-556], in data set [1], the favorable enthalpy change is -24.5 kcal/mol and the “unfavorable entropy change, −TΔS, to Gibbs energy” value is listed as 17.1 kcal/mol.

`CNCc1ccc2c(c1)C[C@H](CNC(=N)N)[C@H]2NC(=O)C(=O)Nc1ccc(Cl)c(F)c1` [(+)-BNM-III-170]: in data set [2] (individual mice 1-3), the B/P was 0.51 and 0.14 and 0.45; the Brain is 268 ng/g and 131 ng/g and 122 ng/g; the “Plasma” value was 522 ng/mL and 910 ng/mL and 270 ng/mL. In data set [2] (female, CD1, mouse, brain, ip, 5 mg/kg, AVG of 3 mice, read-out: B/P), the Kp at 1 h was 0.37. The concentration at 1 h in data set [2] (female, CD1, mouse, brain, ip, 5 mg/kg, AVG of 3 mice, read-out: Brain) was 174 ng/g. In addition, in data set [2] (female, CD1, mouse, plasma, ip, 5 mg/kg, AVG of 3 mice, read-out: Plasma), the concentration at 1 h was 567 ng/mL. Further, in data set [3], the IC50 was 1.5 ± 0.8 µM. Also, in data set [4], the Kd (in general, the concentration at which binding is half-saturated) worked out at 0.047 µM; the “ΔG” value is -10.0 kcal/mol; the “ΔH” value is -20.7 kcal/mol; the “−TΔS (kcal/mol)” value was “+10.7 kcal/mol”. In addition, in data set [5], the IC50 is greater than 100 µM. For the same compound, the IC50 in data set [6] is 6.4 ± 1 µM. The IC50 in data set [7] turned out to be 14.2 ± 4.5 µM. In addition, in data set [8], the MTD (commonly the largest dose that counted as tolerated) was 3 to 9 mg/kg.

As for `CN(Cc1ccccc1)Cc1ccc2c(c1)C[C@H](CNC(=N)N)[C@H]2NC(=O)C(=O)Nc1ccc(Cl)c(F)c1` [(+)-BNM-IV-125], the values for the IC50 in data set [5] and in data set [7] were greater than 100 µM and 14 ± 2 µM, respectively.

For the compound `CNCc1ccc2c(c1)[C@H](NC(=O)C(=O)Nc1ccc(Cl)c(F)c1)[C@@H](CNC(=N)N)C2` [(+)-JP-III-048], in data set [3], the IC50 is 2.1 ± 0.9 µM. In addition, in data set [4], the Kd is 0.024 µM, the “ΔG” value is -10.4 kcal/mol, the “ΔH” value was -28.2 kcal/mol and the “−TΔS (kcal/mol)” value was “+17.8 kcal/mol”. Moreover, the IC50 in data set [5] is greater than 100 µM. For the same compound, the IC50 in data set [6] turned out to be 6.7 ± 0.6 µM. Besides, the IC50 in data set [7] came to 37.3 ± 13.8 µM.

For the compound `CN(Cc1ccc2c(c1)C[C@H](CNC(=N)N)[C@H]2NC(=O)C(=O)Nc1ccc(Cl)c(F)c1)C(=N)N` [(+)-BNM-IV-147], in data set [3], the IC50 was found to be 0.8 ± 0.02 µM. Moreover, in data set [4], the Kd amounted to 0.095 µM, the “ΔG” value was -9.6 kcal/mol, the “ΔH” value is -15.4 kcal/mol and the “−TΔS (kcal/mol)” value is given as “+5.8 kcal/mol”. Besides, the IC50 in data set [5] was greater than 100 µM. In data set [6], the IC50 came out at 3.3 ± 0.2 µM. The IC50 in data set [7] came to 6.2 ± 0.5 µM.

As for `CN(Cc1ccc2c(c1)[C@H](NC(=O)C(=O)Nc1ccc(Cl)c(F)c1)[C@@H](CNC(=N)N)C2)C(=N)N` [(−)-BNM-IV-197], the IC50 in data set [3] came out at 1.2 ± 0.3 µM. In data set [4], the Kd stood at 0.095 µM, the “ΔG” value is -9.6 kcal/mol, the “ΔH” value was -14.2 kcal/mol and the “−TΔS (kcal/mol)” value is given as “+4.6 kcal/mol”. Further, in data set [5], the IC50 stood at 83.7 ± 16.4 µM. Also, the IC50 in data set [6] came to 1.3 ± 0.2 µM. Moreover, in data set [7], the IC50 is 19.5 ± 10.1 µM.

For the compound `N=C(N)NC[C@H]1Cc2ccccc2[C@@H]1NC(=O)C(=O)Nc1ccc(Cl)c(F)c1` [(+)-DMJ-II-121], the IC50 in data set [3] was 3.8 ± 1.3 µM; in data set [5] it was 94.3 ± 5.7 µM; in data set [6], 8.5 ± 2.1 µM; in data set [7], 66.8 ± 9.5 µM. In addition, in data set [4], the “ΔG” value is -9.5 kcal/mol. For the same compound, the “ΔH” value in data set [4] is -17.9 kcal/mol. Moreover, the “−TΔS (kcal/mol)” value in data set [4] is recorded as “+8.4 kcal/mol”.
